From US20210108199A1, “Treatment for aggressive cancers by targeting C9ORF72” (The Trustees of Columbia University in the City of New York, priority 2017, published 2021)

Columns and labels:
Format in all cases: cell-based
U87 cells [1] = assay: ptfLC3 fluorescent autophagy marker imaging; details: U87 cells transfected with ptfLC3
Description: Cells were plated on coverslips in 60-mm culture dishes, and after 48 hours washed twice with PBS followed by incubation with 4% paraformaldehyde (Sigma™) for 20 minutes. Cells then were washed three times with PBS, incubated with PBS/0.5% Triton™ X-100 for 1½ minutes, washed once with PBS and then blocked with 0.5% bovine serum albumin (Sigma™) in PBS for 30 minutes at room temperature before treatment with 100 μL of the diluted primary antibodies (1:1000) for 1 hour at room temperature. The coverslips were then washed three times with PBS and stained by incubation with 100 μL of diluted (1:100) secondary antibody (1:100). The coverslips were then washed three times with PBS and mounted on coverslips with a mounting media containing DAPI stain (Vectashield™, H-1200). Coverslips were imaged at room temperature (about 22° C.) using 40×, 1.3 NA or 63×, 1.4 NA oil immersion lenses on a confocal microscope (LSM 700; Carl Zeiss™).
(§1) To this end, C9 was knocked down in U87 cells and employed a fluorescent autophagy marker ptfLC3 to mark autophagosomes and autophagolysosomes. […] The white arrows show vacuoles and the white box represents a zoom in of the cell area with vacuoles. […] The white box here represents a zoom in of the cell area with vacuoles, nuclei stained with DAPI (blue). FIG. 4B is a WB showing LAMP1 levels after control (siCtrl) and C9 KD (siC9; SEQ ID NO:631).

LAMP1 = LAMP1 western blot; details: U87 cells
Description: (§2) For Western blot analysis, cells were lysed with lysis buffer (20 mM sodium phosphate (pH 7.0), 250 mM NaCl, 30 mM sodium pyrophosphate, 0.1% Nonidet™ P-40, 5 mM EDTA, 10 mM NaF, 0.1 mM Na3VO4, and 1 mM PMSF) supplemented with complete protease inhibitors (Roche™) and homogenized by passage through a 28 gauge needle. Protein concentration was measured with a Bio-Rad™ protein assay dye reagent and results were read using a spectrophotometer (BiophotometerPlus™ by Eppendorf™). Protein extracts were resolved by SDS PAGE on gradient (Thermo Fisher™) or 12% gels. Proteins were then electrotransferred at 350 mA for 80 minutes onto a PVDF membrane (Immobilon-P PVDF). Membranes were blocked with PBST with 5% milk and 1% BSA for 30 minutes. Quantitation of blots was performed Image Studio Lite software (LI-COR Biosciences™).
as §1

PARP1 mRNA = assay: qRT-PCR of PARP1 mRNA; details: U87 cells
Description: For most RNA experiments, RNA was isolated from cells using the Qiagen™ RNeasy minikit. Complementary DNA was generated using the Qiagen™ Quantitect™ reverse transcription kit with 0.5 μg of input RNA as measured with a NanoDrop spectrophotometer (Thermo Scientific™). Real-time PCR was carried out on an ABI StepOne Plus™ machine using power SYBR Green dye (Thermo Scientific™). Transcript levels were assayed in triplicate and normalized to RPL32 and HPS90 mRNAs. Relative changes in cDNA levels were calculated using the comparative Ct method (ΔΔCT method). All RT-qPCR primers were designed with Primer3Plus™ or retrieved from Primerbank™. Primer sequences are listed here, including in Table 3. All primers were purchased from Life Technologies™. H. Generation of p53 Knock Out U87 Cell Lines by CRISPR
Statistical significance was assessed by an unpaired t-test: NS P>0.05, *P≤0.05, **P≤0.01, ***P≤0.001 ****P≤0.0001.

U87 cells [2] = assay: β-Galactosidase staining (senescence)
Description: β-Galactosidase staining was performed using a Senescence™ β-Galactosidase Staining Kit (Cell Signaling™, #9860) and used according to manufacturer's instructions.
To confirm that cells undergo non-apoptotic death, apoptosis was blocked with a broad caspase inhibitor Z-VAD-FMK upon C9 KD. […] Additionally, the apoptosis inducer, staurosporine (STS), was used to asses Z-VAD-FMK efficacy. […] A beta galactosidase staining technique was used to asses senescence upon C9 KD. […] See FIG. 20, for which U87 cells were treated with control (siCtrl) and C9 (siC9; SEQ ID NO:631) siRNA and then subjected to β-Galactosidase Staining.

U87 p53 null KO #4 cells = assay: Vacuoles in p53 null cells transfected with HA tagged wtp53; details: U87 p53 null KO #4 cells transfected with HA tagged wtp53
Description: To provide further evidence of p53 involvement in vacuolization, it was tested whether p53 transfection into p53 null cell lines in C9 KD background induced accumulation of vacuoles. […] In FIG. 36A, phase contrast images (40×) are shown of U87 p53 null KO #4 cells that were transfected with HA tagged wtp53 and then treated with control (siCtrl) or C9 (siC9; SEQ ID NO:631) siRNA. The black boxes show the location of the zoomed in images below with black arrows pointing to vacuoles. […] FIG. 36C is a graph that presents quantitation of data from about 100 cells, indicating the number of vacuoles per cell for conditions described above. Statistical significance was assessed by unpaired t-test: NS P>0.05, *P≤0.05, **P≤0.01, ***P≤0.001 ****P≤0.0001.

p53 null U87 cells [3] = assay: Western blot of PARP1, p-ERK, γ-H2AX in p53 null U87 cells
Description: as §2
In addition, C9 was knocked down with two independent siRNAs in p53 null U87 cells to investigate the role of p53 in the viability of the cells.
See FIG. 37, a WB of p53 null U87 cells (KO #4) treated with control and C9 siRNA and showing levels of PARP1, p-ERK, γ-H2AX. Actin was used as a loading control.

p53 null U87 cells [4] = assay: Mitochondrial imaging in p53 null U87 clones; details: p53 KO U87 clones KO #4 and KO #9
Description: C9 then was knocked down in two p53 KO U87 cells lines which were imaged to show whether mitochondrial disorganization depends on p53. […] FIG. 38 is a set of confocal microscopy images of two p53 null U87 clones (KO #4 and KO #9) treated with control and C9 siRNA, stained with Mitotracker red.

siC9: siRNA targeting C9 mRNA: UUAAUGAAACAAUAAUCACUC (SEQ ID NO:631; sense) and GUGAUUAUUGUUUCAUUAAUC (SEQ ID NO:632; antisense) (listed as RNA, chemistry not given here)
LC3 staining of vacuoles (U87 cells [1]): not stained by LC3
fluorescence of autophagolysosomes (U87 cells [1]): increase fluorescence
LAMP1 levels (LAMP1): increased levels
PARP1 mRNA (PARP1 mRNA): significant repression
nucleus and cell size (U87 cells [2]): increase in both nucleus and cell size
β-galactosidase staining (senescence) (U87 cells [2]): did not stain with the assay
vacuoles per cell (U87 p53 null KO #4 cells): significant increase
PARP1 protein (p53 null U87 cells [3]; p53 KO U87 cells): PARP downregulation occurred without the presence of p53
ERK and γ-H2AX phosphorylation (p53 null U87 cells [3]; p53 null U87 cells (KO #4)): increased ERK and γ-H2AX phosphorylation
mitochondrial organization (p53 null U87 cells [4]): caused mitochondrial disorganization
